Drawing on patent US20230113037A1 (Bayer Aktiengesellschaft, priority 2019, published 2023), this text covers IC50 for 21 molecules.

Values joined by “and” are separate entries in the source; they are usually repeats but may differ in a detail not shown here. Equal values may be shown once. Read-outs that look alike come from different tables or passages of the source. A value given as a limit tells only on which side of the number the result lay.

The target of assay [1] is T1, AHR (Homo sapiens, UniProt P35869).
T1 construct: U87 MG glioblastoma cells (ATCC #HTB-14) endogenously expressing AHR; endogenous in cells; host or cells: U87 MG glioblastoma cells (ATCC #HTB-14)
T1 sequence (P35869 11-848): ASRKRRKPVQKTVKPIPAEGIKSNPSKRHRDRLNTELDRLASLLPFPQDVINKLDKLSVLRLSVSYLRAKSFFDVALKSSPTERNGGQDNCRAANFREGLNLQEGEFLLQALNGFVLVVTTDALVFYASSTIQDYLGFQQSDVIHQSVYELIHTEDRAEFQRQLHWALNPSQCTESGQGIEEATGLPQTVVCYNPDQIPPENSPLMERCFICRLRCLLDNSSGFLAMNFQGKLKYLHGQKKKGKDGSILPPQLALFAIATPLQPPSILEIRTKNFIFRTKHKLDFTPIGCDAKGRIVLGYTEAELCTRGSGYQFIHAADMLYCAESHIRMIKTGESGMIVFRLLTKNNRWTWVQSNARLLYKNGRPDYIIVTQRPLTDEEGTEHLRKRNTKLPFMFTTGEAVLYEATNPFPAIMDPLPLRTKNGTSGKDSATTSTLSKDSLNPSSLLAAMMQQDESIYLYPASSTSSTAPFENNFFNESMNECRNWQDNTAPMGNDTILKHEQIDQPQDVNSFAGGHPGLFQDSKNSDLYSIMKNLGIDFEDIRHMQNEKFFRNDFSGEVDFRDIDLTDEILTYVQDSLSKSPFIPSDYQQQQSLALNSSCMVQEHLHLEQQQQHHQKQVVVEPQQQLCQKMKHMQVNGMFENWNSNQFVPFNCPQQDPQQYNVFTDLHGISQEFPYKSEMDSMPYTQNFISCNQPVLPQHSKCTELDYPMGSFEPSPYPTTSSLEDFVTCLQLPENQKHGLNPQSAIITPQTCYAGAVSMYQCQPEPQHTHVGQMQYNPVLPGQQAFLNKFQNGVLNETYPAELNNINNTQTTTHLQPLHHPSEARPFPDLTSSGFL
Put plainly: In vitro assay 1: antagonism in human cell line (AHR transactivation, firefly luciferase reporter, kynurenic acid prestimulated). Type of assay: cell-based. The note with it: AHR Antagonism Human IC50 [M]. In short, it runs like this: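 Antagonism measured as loss of kynurenic acid-driven firefly luciferase from DRE reporter in stably transfected U87 MG cells; constitutive Renilla signal monitors cytotoxicity. Positive/negative control normalization, staurosporine 5 μM with 150 μM kynurenic acid as inhibition control; replicates given as mean or median.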
(In general: A reporter such as luciferase makes a cellular process visible.)

Assay [2] deals with T2, AHR (Mus musculus, UniProt P30561).
T2 sequence (P30561 1-848 P471L/N533S/M589L): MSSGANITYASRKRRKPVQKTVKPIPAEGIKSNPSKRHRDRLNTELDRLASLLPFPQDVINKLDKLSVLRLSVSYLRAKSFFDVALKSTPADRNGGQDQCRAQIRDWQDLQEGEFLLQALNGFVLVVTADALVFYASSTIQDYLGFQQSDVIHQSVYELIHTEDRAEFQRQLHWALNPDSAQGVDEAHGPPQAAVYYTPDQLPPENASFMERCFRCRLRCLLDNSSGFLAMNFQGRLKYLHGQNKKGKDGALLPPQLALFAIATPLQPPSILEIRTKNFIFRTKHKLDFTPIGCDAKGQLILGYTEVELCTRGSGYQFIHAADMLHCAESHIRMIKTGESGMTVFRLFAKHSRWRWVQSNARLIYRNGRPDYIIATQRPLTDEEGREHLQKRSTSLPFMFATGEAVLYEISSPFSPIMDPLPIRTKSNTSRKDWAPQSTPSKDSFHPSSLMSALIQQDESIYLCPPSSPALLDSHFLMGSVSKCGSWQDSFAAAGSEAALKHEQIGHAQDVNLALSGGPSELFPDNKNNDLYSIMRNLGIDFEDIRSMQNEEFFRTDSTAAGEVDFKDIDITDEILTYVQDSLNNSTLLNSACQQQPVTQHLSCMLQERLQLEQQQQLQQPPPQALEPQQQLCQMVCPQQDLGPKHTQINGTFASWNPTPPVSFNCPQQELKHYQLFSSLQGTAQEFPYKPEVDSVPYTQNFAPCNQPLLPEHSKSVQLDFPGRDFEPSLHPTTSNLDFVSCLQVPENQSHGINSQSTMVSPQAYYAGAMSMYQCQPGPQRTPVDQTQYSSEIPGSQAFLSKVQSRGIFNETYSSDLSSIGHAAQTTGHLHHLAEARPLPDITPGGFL
Nature of the assay: In vitro assay 3: antagonism in mouse cell line (AHR transactivation, firefly luciferase reporter, kynurenic acid prestimulated). The following applies: 200 μM kynurenic acid, 20 hours, read-out: AHR Antagonism Mouse IC50. In kind it is cell-based. Put shortly: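 Kynurenic acid-prestimulated mouse reporter cells; stable AHR-inducible firefly luc construct with DRE sites in promoter. No-agonist wells = positive inhibition ctrl. Luminescence normalized to pos/neg ctrls; n>1 reported as mean or median.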

[3] abbreviates: Hepa 1c1c7 cells, firefly luciferase reporter.

The term IC50 denotes the midpoint of a concentration-inhibition curve. For the molecule `COc1ccc(-c2nc3c4ccccc4nc(N[C@H](C)C(=O)NCCN4CCN(C(=O)OC(C)(C)C)CC4)n3n2)cc1` [Example 884, tert-butyl 4-[2-({N-[2-(4-methoxyphenyl)[1,2,4]triazolo[1,5-c]quinazolin-5-yl]-D-alanyl}amino)ethyl]piperazine-1-carboxylate], the IC50 at AHR [1] (firefly luciferase reporter) turned out to be 6.66e-09 M; on AHR [2] (setting [3]), 8.31 nM.
Consider `Cn1cc(-c2nc3c4cccc(F)c4nc(N[C@@H]4CNCCNC4=O)n3n2)cn1` [Example 428], for which the figures for the IC50 against AHR [1] and on AHR [2] (mouse Hepa 1c1c7 cells) were 2.44e-06 M and 561 nM, respectively.
Turning to `O=C1NCCCC[C@H]1Nc1nc2ccccc2c2nc(-c3ccc(F)c(F)c3)nn12` [Example 633, (3R)-3-{[2-(3,4-difluorophenyl)[1,2,4]triazolo[1,5-c]quinazolin-5-yl]amino}azepan-2-one], the IC50 at AHR [1] turned out to be 1.14e-09 M; at AHR [2] (mouse Hepa 1c1c7 cells), 0.64 nM.
Take `O=C1NCCCC[C@@H]1Nc1nc2ccccc2c2nc(-c3ccncc3F)nn12` [Example 481, (3S)-3-{[2-(3-fluoropyridin-4-yl)[1,2,4]triazolo[1,5-c]quinazolin-5-yl]amino}azepan-2-one]: the results for the IC50 against AHR [1] and on AHR [2] (mouse Hepa 1c1c7 cells) were 1.02e-06 M and 104 nM, respectively.
For `N#Cc1cccc(-c2nc3c4ccccc4nc(N[C@H]4CCCCNC4=O)n3n2)c1` [Example 385, 3-(5-{[(3S)-2-oxoazepan-3-yl]amino}[1,2,4]triazolo[1,5-c]quinazolin-2-yl)benzonitrile], the results for the IC50 against AHR [1] and at AHR [2] (mouse Hepa 1c1c7 cells) were 1.97e-06 M and 146 nM, respectively.
As to `O=C1NCCNCC1Nc1nc2cccc(C3CC3)c2c2nc(-c3cccc(F)c3)nn12` (single isomer, unassigned) [Example 300, 6-{[10-cyclopropyl-2-(3-fluorophenyl)[1,2,4]triazolo[1,5-c]quinazolin-5-yl]amino}-1,4-diazepan-5-one], the values for the IC50 against AHR [1] and on AHR [2] (mouse Hepa 1c1c7 cells) were above 2e-05 M and 6180 nM, respectively.
On to `CCOC(=O)[C@@H](C)Nc1nc2c(Br)cccc2c2nc(-c3cnn(C)c3)nn12` [Example 866, ethyl N-[7-bromo-2-(1-methyl-1H-pyrazol-4-yl)[1,2,4]triazolo[1,5-c]quinazolin-5-yl]-D-alaninate], for which the IC50 against AHR [1] (firefly luciferase reporter) was 5.75e-08 M; on AHR [2] (setting [3]), 144 nM.
For `CCCNC(=O)[C@H](C)Nc1nc2c(Br)cccc2c2nc(-c3ccc(Cl)cc3OC(F)F)nn12` [Example 802, N^2-{7-bromo-2-[4-chloro-2-(difluoromethoxy)phenyl][1,2,4]triazolo[1,5-c]quinazolin-5-yl}-N-propyl-L-alaninamide], the IC50 worked out at 4.76e-08 M against AHR [1] (firefly luciferase reporter) and 12.5 nM at AHR [2] (setting [3]).
With `Cc1ccc2nc(N[C@@H]3CCCCNC3=O)n3nc(-c4cn(C)nc4C(F)(F)F)nc3c2c1` [Example 407, (3R)-3-({9-methyl-2-[1-methyl-3-(trifluoromethyl)-1H-pyrazol-4-yl][1,2,4]triazolo[1,5-c]quinazolin-5-yl}amino)azepan-2-one], the IC50 on AHR [1] is 3.1e-07 M; at AHR [2] (mouse Hepa 1c1c7 cells) it was 246 nM.
With `O=C1NCCCC[C@@H]1Nc1nc2ccccc2c2nc(-c3cccc(OC(F)(F)F)c3)nn12` [Example 315, (3S)-3-({2-[3-(trifluoromethoxy)phenyl][1,2,4]triazolo[1,5-c]quinazolin-5-yl}amino)azepan-2-one], the IC50 is 2.06e-07 M against AHR [1] and 50.8 nM on AHR [2] (mouse Hepa 1c1c7 cells).
In the case of `Cc1cc(-c2nc3c4cccc(C(F)(F)F)c4nc(N[C@@H]4CCCCNC4=O)n3n2)n(C)n1` [Example 740, (3R)-3-{[2-(1,3-dimethyl-1H-pyrazol-5-yl)-7-(trifluoromethyl)[1,2,4]triazolo[1,5-c]quinazolin-5-yl]amino}azepan-2-one], the values for the IC50 on AHR [1] and at AHR [2] (mouse Hepa 1c1c7 cells) were 1.22e-09 M and 1.65 nM, respectively.
For the molecule `COc1ccc(-c2nc3c4cccc(Br)c4nc(N[C@@H](C(=O)N4CCOCC4)C(C)C)n3n2)cc1` [Example 925, (2R)-2-{[7-bromo-2-(4-methoxyphenyl)[1,2,4]triazolo[1,5-c]quinazolin-5-yl]amino}-3-methyl-1-(morpholin-4-yl)butan-1-one], the IC50 at AHR [1] (firefly luciferase reporter) was determined as 6.08e-09 M; on AHR [2] (setting [3]) it was 4.14 nM.
With `COc1cccc(-c2nc3c4c(C)cccc4nc(N[C@H]4CCCCNC4=O)n3n2)c1` [Example 181, (3S)-3-{[2-(3-methoxyphenyl)-10-methyl[1,2,4]triazolo[1,5-c]quinazolin-5-yl]amino}azepan-2-one], the IC50 against AHR [1] came to 3.37e-07 M; on AHR [2] (mouse Hepa 1c1c7 cells), 25.7 nM.
For `Cn1cc(-c2nc3c4ccccc4nc(NC4CCCNC4=O)n3n2)cn1` (stereo not drawn) [Example 13, 3-{[2-(1-methyl-1H-pyrazol-4-yl)[1,2,4]triazolo[1,5-c]quinazolin-5-yl]amino}piperidin-2-one], the IC50 at AHR [1] was 1.21e-06 M; on AHR [2] (mouse Hepa 1c1c7 cells) it was 7260 nM.
For `Cc1nn(C)cc1-c1nc2c3cccc(Br)c3nc(N[C@@H]3CCCCNC3=O)n2n1` [Example 815, (3R)-3-{[7-bromo-2-(1,3-dimethyl-1H-pyrazol-4-yl)[1,2,4]triazolo[1,5-c]quinazolin-5-yl]amino}azepan-2-one], the IC50 was determined as 2.78e-10 M against AHR [1] (firefly luciferase reporter) and 1.6 nM at AHR [2] (setting [3]).
On to `CCCCNC(=O)[C@H](CC)Nc1nc2c(Br)cccc2c2nc(-c3ccc(Cl)cc3OC(F)(F)F)nn12` [Example 813, (2S)-2-({7-bromo-2-[4-chloro-2-(trifluoromethoxy)phenyl][1,2,4]triazolo[1,5-c]quinazolin-5-yl}amino)-N-butylbutanamide], for which the IC50 is above 2e-06 M against AHR [1] (firefly luciferase reporter); 1920 nM and > 2000 nM on AHR [2] (setting [3]).
In the case of `C[S+]([O-])c1ccccc1-c1nc2c3ccccc3nc(N[C@@H]3CCCCNC3=O)n2n1` (mixture of isomers) [Example 648, (3R)-3-[(2-{2-[methanesulfinyl]phenyl}[1,2,4]triazolo[1,5-c]quinazolin-5-yl)amino]azepan-2-one], the IC50 is 6.89e-09 M on AHR [1] and 3.63 nM at AHR [2] (mouse Hepa 1c1c7 cells).
Take `COc1ccc(-c2nc3c4cccc(C)c4nc(N[C@H]4CCCCNC4=O)n3n2)cc1` [Example 144]: the IC50 was above 2e-06 M against AHR [1] and 62.7 nM at AHR [2] (mouse Hepa 1c1c7 cells).
Take `COc1ccc(-c2nc3c4cccc(Br)c4nc(N[C@@H]4CCCCNC4=O)n3n2)c(OC(F)(F)F)c1` [Example 565, (3R)-3-({7-bromo-2-[4-methoxy-2-(trifluoromethoxy)phenyl][1,2,4]triazolo[1,5-c]quinazolin-5-yl}amino)azepan-2-one]: the IC50 on AHR [1] amounted to 8.44e-09 M; at AHR [2] (mouse Hepa 1c1c7 cells), 3.33 nM.
On to `CC(C)[C@@H](Nc1nc2ccccc2c2nc(-c3ccccc3)nn12)C(N)=O` [Example 3, N^2-(2-phenyl[1,2,4]triazolo[1,5-c]quinazolin-5-yl)-D-valinamide], for which the IC50 turned out to be 1.82e-09 M on AHR [1] and 0.428 nM at AHR [2] (mouse Hepa 1c1c7 cells).
For the molecule `CCCNC(=O)[C@@H](C)Nc1nc2ccccc2c2nc(-c3ccc(S(C)(=O)=O)cc3)nn12` [Example 439, N^2-{2-[4-(methanesulfonyl)phenyl][1,2,4]triazolo[1,5-c]quinazolin-5-yl}-N-propyl-D-alaninamide], the IC50 on AHR [1] was 4.52e-08 M; at AHR [2] (mouse Hepa 1c1c7 cells) it was 27 nM.
